Measurements taken from US12421243B2, “Pharmaceutically effective compounds inhibiting selectively the myosin 2 isoforms” (PRINTNET KERESKEDELMI ÉS SZOLGÁLTATÓ KFT., priority 2018, dated 2025).

How the values were obtained:
[1] = target: isolated smooth muscle myosin (UniProt P10587); assay type: biochemical, chamois; details: for % inhibition at 5 μM (or 10 μM if racemate) Smooth: 5 μM (10 μM if racemate); for % inhibition at 5 μM (or 10 μM if racemate) Smooth / % inhibition at 50 μM (or 100 μM if racemate) Smooth: ATPase activity; for % inhibition at 50 μM (or 100 μM if racemate) Smooth: 50 μM (100 μM if racemate); for % inhibition. complete Smooth: maximum value of inhibition of ATPase activity
[2] = system: isolated rabbit skeletal muscle myosin (skeletal); test: actomyosin steady state ATPase measurement, skeletal muscle myosin; assay type: biochemical; details: for % inhibition at 5 μM (or 10 μM if racemate) Skeletal: 5 μM (10 μM if racemate); for % inhibition at 5 μM (or 10 μM if racemate) Skeletal / % inhibition at 50 μM (or 100 μM if racemate) Skeletal: ATPase activity; for % inhibition at 50 μM (or 100 μM if racemate) Skeletal: 50 μM (100 μM if racemate); for IC50: concentration required for semi-maximal inhibition of ATPase; for % inhibition. complete Skeletal: maximum value of inhibition of ATPase activity
From the text: (§1) […]; (ii) the concentration required for semi-maximal inhibition.

[3] = target: T1, isolated porcine cardiac ventricular myocardium (cardiac) (Sus scrofa, UniProt P79293); test: actomyosin steady state ATPase measurement, cardiac myosin; assay type: biochemical; details: for IC50: concentration required for semi-maximal inhibition of ATPase; for % inhibition. complete cardiac: maximum value of inhibition of ATPase activity; for inhibition at 5 µM: read-out: % inhibition at 5 μM (or 10 μM if racemate) cardiac, 5 μM (10 μM if racemate); for inhibition at 5 µM / inhibition at 50 µM: ATPase activity; for inhibition at 50 µM: read-out: % inhibition at 50 μM (or 100 μM if racemate) cardiac, 50 μM (100 μM if racemate); for Inhibition (%) cardiac: maximum inhibition, compounds in IC50 range 3-6 μM
T1 construct: isolated porcine cardiac ventricular myocardium (cardiac); from tissue; host or cells: porcine cardiac ventricle
From the text: as §1

[4] = target: recombinant Dictyostelium miozin (Dictyostelium) (Dictyostelium discoideum, UniProt P08799); test: actomyosin steady state ATPase measurement, Dictyostelium myosin; assay type: biochemical; details: for IC50: concentration required for semi-maximal inhibition of ATPase, read-out: IC50 (μM) Dicty; for % inhibition. complete Dicty: maximum value of inhibition of ATPase activity; for inhibition at 5 µM: read-out: % inhibition at 5 μM (or 10 μM if racemate) Dicty; for inhibition at 50 µM: read-out: % inhibition at 50 μM (or 100 μM if racemate) Dicty
From the text: as §1

[5] = target: isolated smooth muscle myosin (UniProt P10587); assay type: biochemical, chamois; details: concentration required for semi-maximal inhibition of ATPase
From the text: (ii) the concentration required for semi-maximal inhibition.

T1 sequence (P79293 whole entry): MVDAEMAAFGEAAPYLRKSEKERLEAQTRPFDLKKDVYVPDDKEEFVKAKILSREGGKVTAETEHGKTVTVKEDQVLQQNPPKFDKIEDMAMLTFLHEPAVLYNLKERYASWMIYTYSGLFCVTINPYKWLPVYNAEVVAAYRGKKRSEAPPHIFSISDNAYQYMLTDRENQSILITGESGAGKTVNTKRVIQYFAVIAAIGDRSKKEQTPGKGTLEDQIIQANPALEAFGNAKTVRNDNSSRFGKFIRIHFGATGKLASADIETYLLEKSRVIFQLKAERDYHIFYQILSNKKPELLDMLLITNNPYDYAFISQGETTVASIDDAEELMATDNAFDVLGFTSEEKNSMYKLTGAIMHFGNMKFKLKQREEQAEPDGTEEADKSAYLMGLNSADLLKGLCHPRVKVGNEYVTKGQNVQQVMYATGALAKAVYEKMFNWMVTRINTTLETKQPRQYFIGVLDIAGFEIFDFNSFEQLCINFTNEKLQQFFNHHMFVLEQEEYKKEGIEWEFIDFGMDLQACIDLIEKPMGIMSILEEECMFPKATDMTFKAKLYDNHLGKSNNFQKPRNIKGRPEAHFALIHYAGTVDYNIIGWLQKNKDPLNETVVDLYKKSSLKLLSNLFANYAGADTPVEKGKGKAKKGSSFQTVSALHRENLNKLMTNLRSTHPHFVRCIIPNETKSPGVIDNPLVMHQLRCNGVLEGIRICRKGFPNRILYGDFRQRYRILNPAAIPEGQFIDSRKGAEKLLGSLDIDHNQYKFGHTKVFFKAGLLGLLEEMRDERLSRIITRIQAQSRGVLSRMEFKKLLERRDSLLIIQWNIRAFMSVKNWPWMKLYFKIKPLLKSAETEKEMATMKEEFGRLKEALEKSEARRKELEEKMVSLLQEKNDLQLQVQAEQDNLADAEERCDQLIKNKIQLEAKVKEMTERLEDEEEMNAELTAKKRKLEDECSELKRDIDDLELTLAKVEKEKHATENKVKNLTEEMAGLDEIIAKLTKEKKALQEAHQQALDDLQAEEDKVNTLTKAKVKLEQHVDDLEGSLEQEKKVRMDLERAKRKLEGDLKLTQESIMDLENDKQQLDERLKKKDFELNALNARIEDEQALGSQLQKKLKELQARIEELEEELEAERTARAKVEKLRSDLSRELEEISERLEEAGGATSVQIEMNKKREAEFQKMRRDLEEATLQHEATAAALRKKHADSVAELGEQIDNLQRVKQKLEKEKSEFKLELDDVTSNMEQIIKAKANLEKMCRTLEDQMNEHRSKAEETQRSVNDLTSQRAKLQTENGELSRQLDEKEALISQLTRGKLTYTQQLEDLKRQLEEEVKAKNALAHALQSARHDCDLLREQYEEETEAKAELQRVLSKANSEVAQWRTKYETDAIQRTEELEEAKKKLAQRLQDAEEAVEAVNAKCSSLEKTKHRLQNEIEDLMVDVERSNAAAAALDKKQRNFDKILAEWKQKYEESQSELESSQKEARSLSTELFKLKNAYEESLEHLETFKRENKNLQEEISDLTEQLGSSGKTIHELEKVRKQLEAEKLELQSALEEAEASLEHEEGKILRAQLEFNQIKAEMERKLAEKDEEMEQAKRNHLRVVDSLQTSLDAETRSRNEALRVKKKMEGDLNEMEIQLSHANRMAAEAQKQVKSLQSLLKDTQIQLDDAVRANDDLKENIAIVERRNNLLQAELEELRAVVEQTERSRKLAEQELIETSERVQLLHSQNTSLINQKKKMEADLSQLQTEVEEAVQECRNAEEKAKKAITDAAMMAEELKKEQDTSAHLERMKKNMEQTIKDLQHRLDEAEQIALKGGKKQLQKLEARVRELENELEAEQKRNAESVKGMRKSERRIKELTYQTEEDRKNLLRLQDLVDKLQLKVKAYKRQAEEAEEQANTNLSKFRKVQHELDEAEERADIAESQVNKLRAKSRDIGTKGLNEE
Chain of recombinant Dictyostelium miozin (Dictyostelium) (P08799 whole entry): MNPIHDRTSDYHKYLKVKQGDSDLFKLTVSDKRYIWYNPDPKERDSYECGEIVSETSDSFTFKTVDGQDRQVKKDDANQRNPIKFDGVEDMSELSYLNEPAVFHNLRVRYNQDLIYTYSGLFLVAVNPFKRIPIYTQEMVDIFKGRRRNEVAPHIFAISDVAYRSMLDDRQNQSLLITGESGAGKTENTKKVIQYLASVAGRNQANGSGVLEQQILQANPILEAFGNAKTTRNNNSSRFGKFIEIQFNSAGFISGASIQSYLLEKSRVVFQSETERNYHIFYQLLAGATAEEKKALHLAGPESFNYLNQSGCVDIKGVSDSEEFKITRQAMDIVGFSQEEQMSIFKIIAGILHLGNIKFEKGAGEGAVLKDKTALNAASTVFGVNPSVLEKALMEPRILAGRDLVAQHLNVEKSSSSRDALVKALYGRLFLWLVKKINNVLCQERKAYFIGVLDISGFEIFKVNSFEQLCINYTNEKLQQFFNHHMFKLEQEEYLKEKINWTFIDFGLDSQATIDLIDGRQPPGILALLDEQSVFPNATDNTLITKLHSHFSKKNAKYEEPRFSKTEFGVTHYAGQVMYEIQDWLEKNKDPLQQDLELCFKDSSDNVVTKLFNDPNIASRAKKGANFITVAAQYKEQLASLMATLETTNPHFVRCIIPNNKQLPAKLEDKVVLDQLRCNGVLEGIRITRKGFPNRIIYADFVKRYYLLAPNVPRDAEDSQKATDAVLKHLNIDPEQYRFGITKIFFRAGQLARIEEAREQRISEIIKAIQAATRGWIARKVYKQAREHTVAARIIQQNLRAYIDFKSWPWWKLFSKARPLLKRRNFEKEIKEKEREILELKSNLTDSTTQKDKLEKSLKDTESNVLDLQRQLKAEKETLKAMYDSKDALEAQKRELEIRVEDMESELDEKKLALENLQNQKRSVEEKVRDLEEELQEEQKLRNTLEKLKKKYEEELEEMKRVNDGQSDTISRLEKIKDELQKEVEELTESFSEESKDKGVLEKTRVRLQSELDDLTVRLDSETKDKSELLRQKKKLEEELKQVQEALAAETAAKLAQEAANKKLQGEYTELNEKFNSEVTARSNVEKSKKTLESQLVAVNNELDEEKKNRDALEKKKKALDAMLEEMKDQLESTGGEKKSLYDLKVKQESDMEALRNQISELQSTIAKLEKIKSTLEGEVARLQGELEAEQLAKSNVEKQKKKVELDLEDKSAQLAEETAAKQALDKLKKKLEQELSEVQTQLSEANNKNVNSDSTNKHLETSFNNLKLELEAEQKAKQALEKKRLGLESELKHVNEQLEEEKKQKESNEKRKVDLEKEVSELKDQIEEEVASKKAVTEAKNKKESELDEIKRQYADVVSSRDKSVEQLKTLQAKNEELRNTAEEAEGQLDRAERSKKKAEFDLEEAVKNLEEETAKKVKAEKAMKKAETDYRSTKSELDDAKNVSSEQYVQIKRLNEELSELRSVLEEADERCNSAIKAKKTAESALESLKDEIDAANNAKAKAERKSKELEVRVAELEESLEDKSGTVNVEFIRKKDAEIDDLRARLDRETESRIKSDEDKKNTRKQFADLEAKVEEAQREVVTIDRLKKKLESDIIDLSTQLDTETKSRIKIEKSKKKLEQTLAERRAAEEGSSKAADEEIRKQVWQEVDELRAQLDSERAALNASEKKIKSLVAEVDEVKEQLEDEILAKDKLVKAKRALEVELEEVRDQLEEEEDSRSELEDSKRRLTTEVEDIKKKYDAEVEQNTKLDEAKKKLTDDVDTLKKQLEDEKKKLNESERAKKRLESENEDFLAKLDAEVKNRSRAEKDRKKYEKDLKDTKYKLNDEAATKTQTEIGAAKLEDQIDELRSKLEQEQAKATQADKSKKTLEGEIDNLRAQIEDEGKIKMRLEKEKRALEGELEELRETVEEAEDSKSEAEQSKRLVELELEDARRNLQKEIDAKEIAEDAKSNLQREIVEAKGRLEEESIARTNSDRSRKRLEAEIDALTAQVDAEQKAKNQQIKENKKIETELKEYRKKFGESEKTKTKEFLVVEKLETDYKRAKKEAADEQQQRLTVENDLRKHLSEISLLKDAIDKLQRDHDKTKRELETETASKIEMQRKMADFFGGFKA

| SMILES | % inhibition at 5 μM (or 10 μM if racemate) Smooth [1] | % inhibition at 50 μM (or 100 μM if racemate) Smooth [1] | % inhibition. complete Smooth [1] | % inhibition at 5 μM (or 10 μM if racemate) Skeletal [2] | % inhibition at 50 μM (or 100 μM if racemate) Skeletal [2] | IC50 [2] | % inhibition. complete Skeletal [2] | IC50 [3] | % inhibition. complete cardiac [3] | inhibition at 5 µM [3] | inhibition at 50 µM [3] | IC50 [4] | % inhibition. complete Dicty [4] | inhibition at 5 µM [4] | inhibition at 50 µM [4] | IC50 [5] | Inhibition (%) cardiac [3] |
| --- | --- | --- | --- | --- | --- | --- | --- | --- | --- | --- | --- | --- | --- | --- | --- | --- | --- |
| O=C1c2ccncc2N=C2N(c3ccc(N4CCOCC4)cc3)CCC12O (centres unmarked) [Compound 248, 3a-Hydroxy-1-[4-(morpholin-4-yl)phenyl]-1H,2H,3H,3aH,4H-pyrrolo[2,3-b]1,7-naphthyridin-4-one] | 1% | 0% | 0% | 21% | 56% | 12 µM | 70% | > 100 µM | 2% | 4% | 1% | > 100 µM | 100% | 0% | 7% | > 100 µM |  |
| Cc1cc2c(s1)N=C1N(c3ccc(N(C)C)cc3)CCC1(O)C2=O (centres unmarked) [Compound 250, 12-[4-(Dimethylamino)phenyl]-9-hydroxy-5-methyl-4-thia-2,12-diazatricyclo[7.3.0.0^3,7]dodeca-1,3(7),5-trien-8-one] |  |  |  | 93% | 98% | 0.3 µM | 99% | 9 µM | 76% | 26% | 64% | 18 µM | 68% | 15% | 50% |  |  |
| CN(C)c1ccc(N2CCC3(O)C(=O)c4ccncc4N=C23)cc1 (centres unmarked) [Compound 251, 1-[4-(Dimethylamino)phenyl]-3a-hydroxy-1H,2H,3H,3aH,4H-pyrrolo[2,3-b]1,7-naphthyridin-4-one] | 0% | 25% | 100% | 47% | 85% | 4.8 µM | 93% | 6 µM | 15% | 6% | 13% | > 100 µM |  | 1% | 1% | > 100 µM | 15% |
| Cc1ccc(N2CCC3(O)C(=O)c4ccncc4N=C23)cc1 (centres unmarked) [Compound 247, 1-[4-(Methyl)phenyl]-3a-hydroxy-1H,2H,3H,3aH,4H-pyrrolo[2,3-b]1,7-naphthyridin-4-one] | 3% | 15% | 29% | 74% | 96% | 1.7 µM | 99% | 31 µM | 70% | 9% | 43% | 71 µM | 54% | 4% | 22% | 44 µM |  |
| Cc1ccc(N2CCC3(O)C(=O)c4cc(C)sc4N=C23)cc1 (centres unmarked) [Compound 235, 12-[4-(Methyl)phenyl]-9-hydroxy-5-methyl-4-thia-2,12-diazatricyclo[7.3.0.0^3,7]dodeca-1,3(7),5-trien-8-one] | 82% | 79% | 81% | 98% | 100% | 0.08 µM | 100% | 0.01 µM | 71% | 72% | 70% | 0.17 µM | 46% | 44% | 45% | 0.01 µM |  |
| O=C1c2ccsc2N=C2NCC[C@@]12O [Compound 207, (9S)-9-Hydroxy-4-thia-2,12-diazatricyclo[7.3.0.0^3,7]dodeca-1,3(7),5-trien-8-one] | 7% | 6% | 7% | 7% | 14% | 5.8 µM | 15% | 3.7 µM | 8% | 4% | 7% | > 100 µM |  | 0% | 5% | 1 µM | 8% |
